Measurements reported in patent US7183106B1, “Bacterial inosine 5′-monophosphate dehydrogenase (“IMPDH”) DNA as a dominant selectable marker in mammals and other eukaryotes” (The United States of America as represented by the United …, priority 2004, dated 2007).

Columns and labels:
Test in all cases: MPA toxicity by MTT assay
V79 cells = type: cell-based, Chinese hamster
Description: (§1) The mammalian cells (2×10^7) (i.e. V79, MDA-MB-231, PC3, COS7) were washed once with phosphate buffered saline (PBS), resuspended in 400 μl of Cytomix buffer, placed in an electroporation cuvette and transfected with 10 μg of DNA by electroporation at 200V, 30 ms, in an ElectroSquarePorator T280 electroporator (BTX, Inc., San Diego, Calif.). Immediately after electroporation, the cuvettes were placed on ice for 10–15 min. After that the cells were washed once in PBS and 1×10^6 viable cells, as determined by trypan blue exclusion, were re-suspended in 10 ml of growth medium in 100 mm tissue culture plates, incubated overnight at 37° C. and treated the next day with 0.8 μg/ml of MPA (stock concentration at 14.2 mg/ml in DMSO, Sigma, St. Louis, Mo.) or 600 μg/ml of G418. For the different assays, cells were obtained from either individual or pooled MPA-resistant colonies. For colony isolation, visible individual colonies were each picked and aspirated into a glass Pasteur pipette and transferred into a well of a 24-well tissue culture plate. The next day, after rinsing the wells with the colonies with PBS and incubation for 1–2 min in a drop of a trypsin/EDTA solution, the cells within each well were dispersed by forceful pipetting. Next, the cells were incubated in growth medium to generate a monolayer culture, which was used to determine the cells' susceptibility to MPA. Cultures were also obtained from single MPA-resistant cells derived from pooled colonies by seeding 2.5 cells/ml into 96-well flat-bottom microtiter plates in 200 μl of growth medium/well and only cultures deriving from wells that were initially found to contain single cells were used. MPA toxicity was determined by the MTT (methylthiazoletetrazolium) assay (described in detail below) while the expression of the green fluorescent protein (GFP) was detected by fluorescence microscopy and/or flow cytometry.
(§2) Cell survival and proliferation was measured using the MTT assay, which detects active mitochondria and as a result viable cells. For this assay, 2×10^4 cells were suspended in 200 μl of growth medium/well in 96-well flat-bottom microtiter plates with various stimuli and incubated at 37° C. After 6 d, 10 μl of MTT solution (5 mg/ml in PBS) (Sigma, St. Louis, Mo.) was added to each well and the plates were incubated for an additional 4 h at 37° C. In the case of V79 cells, which grow twice as fast as the other cell lines, the MTT solution was added after 3 d. The plates were then centrifuged at 1000 rpm for 5 min, supernatants discarded and 100 µl of DMSO added per well, and the plates were read at 540 nm using a microtiter plate reader.

PC3 cells = type: cell-based, human
Description: as §1, §2

MDA-MB-231 cells = type: cell-based, human
Description: as §1, §2

COS7 cells = type: cell-based, monkey
Description: as §1, with “Cultures were also obtained from single MPA-resistant cells derived from pooled colonies by seeding 2.5 cells/ml into 96-well flat-bottom microtiter plates in 200 μl of growth medium/well and only cultures deriving from wells that were initially found to contain single cells were used.” left out
Cell survival and proliferation was measured using the MTT assay, which detects active mitochondria and as a result viable cells. […] The plates were then centrifuged at 1000 rpm for 5 min, supernatants discarded and 100 µl of DMSO added per well, and the plates were read at 540 nm using a microtiter plate reader.

COc1c(C)c2c(c(O)c1C/C=C(\C)CCC(=O)O)C(=O)OC2 [MPA, mycophenolic acid]
MPA concentration to whose cytotoxic effect the cells were resistant (V79 cells; 7 individual MPA-resistant V79 colonies (pFLAG-IMPDH transfected), MTT assay): up to 50 μg/ml
MPA concentration at which cells failed to grow (V79 cells; parental (not transfected) V79 cells): ≤ 0.8 µg/mL
MPA concentration to whose cytotoxic effect the cells were resistant (V79 cells; single cell-derived cultures from pooled MPA-resistant V79 colonies): up to 50 μg/ml
Time after MPA treatment at which growth inhibition was detected (V79 cells; wild type V79 cells): 3 days
MTT staining of control cultures after 4 weeks of MPA treatment (PC3 cells; control (not transfected parental) PC3 cultures, 4 weeks): no MTT staining above background levels
MPA concentration to whose cytotoxic effect the cells were resistant (PC3 cells; single cell-derived cultures from pooled MPA-resistant PC3 colonies): up to 50 μg/ml
Time after MPA treatment at which growth inhibition was detected (PC3 cells; wild type PC3 cells): 6 days
MTT staining of control cultures after 4 weeks of MPA treatment (MDA-MB-231 cells; control (not transfected parental) MDA-MB-231 cultures, 4 weeks): no MTT staining above background levels
MPA concentration to whose cytotoxic effect the cells were resistant (MDA-MB-231 cells; single cell-derived cultures from pooled MPA-resistant MDA-MB-231 colonies): up to 50 μg/ml
Time after MPA treatment at which growth inhibition was detected (MDA-MB-231 cells; wild type MDA-MB-231 cells): 6 days
MTT staining of control cultures after 4 weeks of MPA treatment (COS7 cells; control (not transfected parental) COS7 cultures, 4 weeks): no MTT staining above background levels
MPA concentration to whose cytotoxic effect the cells were resistant (COS7 cells; single cell-derived cultures from pooled MPA-resistant COS7 colonies): up to 50 μg/ml
Time after MPA treatment at which growth inhibition was detected (COS7 cells; wild type COS7 cells): 6 days
